The nature of this experiment: EBV protein-peptide binding inhibitors, dose response, biochemical, fluorescence polarization (AID 1419). As to conditions: cell-free protein-peptide binding, 2 h; for fold change: measured here: P channel fold over control, at 54 µM. On the technique in general: Fluorescence polarisation rises when a labelled molecule tumbles more slowly, as on binding a larger partner.

Active and inactive are the calls of the source. The rule behind the calls is not given here. Some results are limits rather than exact numbers.

By IC50 is commonly meant the point on the concentration scale where inhibition reaches its midpoint. As to `O=C1NC(=O)N(Cc2ccco2)C(=O)/C1=C/c1ccc(-c2cccc([N+](=O)[O-])c2)o1`, the IC50 is 16.5 µM and the fold change is 2.15.

As for `COc1ccc2ccccc2c1C(O)c1nccn1C` (stereo not given), the IC50 was 2.72 µM and the fold change was 5.13.

As to `CSC1=NSC2=NC(=O)/C(=C/c3coc4ccc(O)cc4c3=O)C(=N)N12`, the IC50 was 2.5 µM and the fold change is 63.6.

Regarding `CSc1nc(N(C)CCO)c2sc3nc(-c4ccco4)c4c(c3c2n1)CCC4`, the IC50 was > 54 µM (inactive) and the fold change turned out to be 1.04.

For the molecule `O=[N+]([O-])c1ccc(N2N=C(c3ccco3)CC2c2ccccc2)cc1` (stereo not given), the concentration for half-maximal inhibition (IC50) is 14.2 µM and the fold change was determined as 2.85.

Turning to `O=C(N/N=C/c1cc(Cl)cc([N+](=O)[O-])c1O)NC12CC3CC(CC(C3)C1)C2`, the IC50 is > 54 µM (inactive) and the fold change amounted to 0.913.

On to `Fc1ccccc1/C=N/Nc1ncnc2nc[nH]c12`, for which the IC50 was > 54 µM (inactive) and the fold change was found to be 1.17.

Consider `COC(=O)CCCC1=CC2=CC(=O)C(C)(OC(=O)c3cccs3)C(=O)C2=CN1c1cccc(C#N)c1` (stereo not given), for which the IC50 is > 54 µM (inactive) and the fold change is 1.49.

Turning to `Cc1cc(/C=C(/C#N)c2nc3ccccc3[nH]2)c(C)n1-c1cc(C(=O)O)cc(C(=O)O)c1`, the IC50 was 2.92 µM and the fold change was 23.1.

Consider `O=C(c1ccc2nc(-c3ccco3)c(-c3ccco3)nc2c1)N1CCN(c2ncccn2)CC1`, for which the IC50 is > 54 µM (inactive) and the fold change is 1.05.

For the molecule `O=[N+]([O-])c1ccc(O)c(N=Cc2sc3ccccc3c2O)c1`, the IC50 is > 54 µM (inactive) and the fold change was found to be 1.45.

In the case of `CCN(CC)S(=O)(=O)c1ccc(C(=O)/C=C/c2ccc(-c3ccc([N+](=O)[O-])cc3)o2)cc1`, the IC50 was 2.97 µM and the fold change came out at 12.8.

Turning to `O=C(C1=NN(c2ccccc2)C2C(=O)N(c3ccc(Cl)cc3)C(=O)C12)c1ccccc1` (stereo not given), the IC50 is > 54 µM (inactive) and the fold change came to 5.95.

`Nc1cc2nc3ccccc3nc2cc1N`: the half-maximal inhibitory concentration (IC50) is under 0.42 µM and the fold change is 24.2.

As to `O=C(Nc1ccc(Cl)cc1)Nc1nnc(-c2ccncc2)s1`, the IC50 was > 54 µM (inactive) and the fold change turned out to be 1.08.

Take `O=S(=O)(Nc1cc2nc3ccccc3nc2n1Cc1ccccc1)c1ccc(Cl)cc1`: the IC50 is 2.89 µM and the fold change is 13.

Consider `O=C(O)c1ccccc1/C=N/NC(=O)c1cc(-c2ccco2)nc2ccccc12`, for which the IC50 was 30.4 µM (inactive) and the fold change is 1.03.

In the case of `Cc1cc(-c2nc3c4c5c(sc4[nH]c(=O)n3n2)CCC5)c(C)o1`, the IC50 was 21.8 µM and the fold change stood at 1.2.

As to `Cc1cc(C)c[n+](-c2nc3ccccc3nc2[N-]S(=O)(=O)c2ccc(Br)s2)c1`, the IC50 was 7.26 µM and the fold change was found to be 3.69.

For the molecule `CC(C)[C@H]1C(=O)N2CCC[C@H]2[C@]2(O)O[C@](NC(=O)[C@@H]3C=C4c5cccc6[nH]cc(c56)C[C@H]4N(C)C3)(C(C)C)C(=O)N12`, the IC50 was 3.64 µM and the fold change is 5.11.

As to `COc1ccc(-c2cc(C(F)(F)F)c3c(n2)sc2c(O)cc(=O)[nH]c23)c(OC)c1`, the IC50 was 3.77 µM and the fold change is 3.12.

In the case of `CCOc1ccc(-c2csc(NC(=O)CSC3=NC(=O)CN3C(C)=O)n2)c2ccccc12`, the IC50 is > 54 µM (inactive) and the fold change is 0.947.

Turning to `COc1ccc(-n2c(N)c(C#N)c3ccc([N+](=O)[O-])cc3c2=O)cc1`, the IC50 is > 54 µM (inactive) and the fold change came to 1.45.

On to `COc1ccc(Cn2c3ccc(OC)cc3c3nc4ccccc4nc32)cc1`, for which the concentration for half-maximal inhibition (IC50) is 3.27 µM and the fold change was determined as 3.38.

Consider `O=c1c(/C=C(\O)c2ccccc2)nc2ccccc2n1-c1ccccc1`, for which the IC50 was 14.1 µM and the fold change is 27.6.

As for `O=c1oc2ccccc2cc1-c1nc(-c2cccs2)cs1`, the IC50 is 2.96 µM and the fold change was 25.8.

On to `COC(=O)c1cc(NC(=O)c2ccccc2)c(=O)oc1/C=C/Nc1ccc(Oc2ccccc2)cc1`, for which the IC50 was 1.4 µM and the fold change is 22.

For `CCCn1c(SCCc2ccccc2)nc2c1c(=O)[nH]c(=O)n2C`, the IC50 was > 54 µM (inactive) and the fold change is 0.953.

For `CN(C)c1ccc(/C=C2\CCC/C(=C\c3ccccc3)C2=O)cc1`, the IC50 was 14.5 µM and the fold change worked out at 10.6.

`COC(CNC(=O)c1ccc2c3c(onc13)-c1ccccc1C2=O)OC`: the IC50 was under 0.42 µM and the fold change came out at 137.

In the case of `Cc1ccc(-c2cc(-c3ccco3)c(C#N)c(=O)[nH]2)cc1`, the IC50 is > 54 µM (inactive) and the fold change is 1.46.

As to `CCOc1ccc(-c2nn(-c3ccccc3)cc2/C=C2\SC(=S)N(C3CCS(=O)(=O)C3)C2=O)cc1` (stereo not given), the IC50 is 2.12 µM and the fold change worked out at 10.9.

Consider `CSc1nc(SCC(=O)O)c2sc3nc(-c4ccccc4)c4c(c3c2n1)CCC4`, for which the IC50 is 3.47 µM and the fold change turned out to be 1.08.

`COc1cc(/C=C2\SC(=O)N(c3cccc(Cl)c3)C2=O)cc([N+](=O)[O-])c1O`: the 50% inhibitory concentration (IC50) was 3.51 µM and the fold change came out at 1.04.

As to `O=C1C(=Cc2cccn2-c2ccc(O)cc2)C(=O)c2ccccc21`, the IC50 was 1.94 µM and the fold change came to 4.4.

Regarding `Cc1ccc(C(NC(=O)C2CCCCC2)c2c(O)ccc3ccccc23)cc1` (stereo not given), the IC50 was > 54 µM (inactive) and the fold change stood at 1.03.

On to `Cc1ccc(-n2cccc2/C=C2\C(=N)N3N=C(c4ccco4)SC3=NC2=O)cc1`, for which the IC50 was > 54 µM (inactive) and the fold change worked out at 1.17.

For `O=C(/C(=C(\[O-])c1ccccc1)[n+]1ccc2ccccc2c1)c1ccccc1`, the IC50 was 4.31 µM and the fold change is 3.02.

Take `O=c1[nH]c(=O)n(Cc2ccccc2)c(O)c1/C=C1\C=Nc2ccccc21`: the IC50 was 2.18 µM and the fold change came out at 6.67.

For `Nc1c(O)ccc2c1C(=O)c1ccccc1C2=O`, the IC50 is 4.09 µM and the fold change amounted to 2.59.

As for `COC(=O)C(Nc1nccs1)(OC)C(F)(F)F` (stereo not given), the concentration for half-maximal inhibition (IC50) is 13.8 µM and the fold change turned out to be 2.09.

With `Cc1n[nH]c(C)c1N1C(=O)c2cccc3c(N4CCCCCC4)ccc(c23)C1=O`, the IC50 is under 0.42 µM and the fold change is 88.6.

As to `CC(C)(CCl)C(=O)Nc1ccc(OC(F)(F)F)cc1`, the IC50 was > 54 µM (inactive) and the fold change was found to be 1.14.

As for `CN1C(=O)N(C)c2ccc(C=O)c3cccc1c23`, the 50% inhibitory concentration (IC50) is 4.91 µM and the fold change came to 2.37.

For the molecule `C=CCn1c(O)c(N=Nc2ccccc2C)c2ccccc21`, the IC50 was 14.9 µM and the fold change worked out at 12.4.

For the molecule `O=C(O)/C=C/c1cn(-c2ccccc2)nc1-c1ccc(-c2ccc([N+](=O)[O-])cc2)o1`, the IC50 is 5.25 µM and the fold change was 2.34.

Consider `CC(C)c1nnc(N2C(=O)C(O)=C(C(=O)c3cccs3)C2c2ccccc2)s1` (stereo not given), for which the IC50 was under 0.42 µM and the fold change stood at 4.97.

In the case of `O=c1nc2s/c(=C\c3ccc(-c4ccccc4[N+](=O)[O-])o3)c(=O)n2nc1-c1ccccc1`, the IC50 was under 0.42 µM and the fold change came out at 9.05.

In the case of `O=c1oc2ccccc2nc1/C=C(\O)c1ccc(Br)cc1`, the IC50 was > 54 µM (inactive) and the fold change amounted to 6.17.

Regarding `CNC(=S)NN(c1ccccc1)c1ccccc1`, the IC50 was > 54 µM (inactive) and the fold change came to 1.01.

`COc1ccc(NC(=O)CSc2nc3c(c(-c4cccs4)c2C#N)CN(C)CC3)cc1OC`: the IC50 was > 54 µM (inactive) and the fold change stood at 1.37.

Regarding `O=C(Nc1nccs1)C(c1ccccc1)N1CCCC1` (stereo not given), the IC50 was > 54 µM (inactive) and the fold change came to 1.04.

As to `O=C(CSc1nc(-c2ccc(F)cc2)nc2c1Cc1ccccc1O2)Nc1cccc(C(=O)O)c1`, the IC50 was 1.63 µM and the fold change worked out at 1.13.

For the molecule `COc1cc(C2C=C(c3cccs3)Nc3ncnn32)cc(OC)c1OC` (stereo not given), the IC50 was under 0.42 µM and the fold change was found to be 13.5.

`c1ccc(-c2[nH]c(-c3ccccc3)[n+](CC3CO3)c2-c2ccccc2)cc1` (stereo not given): the IC50 was > 54 µM (inactive) and the fold change stood at 0.99.

For the molecule `N=c1oc2cc(O)ccc2cc1C(=O)Nc1ccccn1`, the IC50 is 6.67 µM and the fold change was determined as 5.39.

Turning to `CC(=O)[C@@H]1[C@@H]2C(=O)N(C3CCCCC3)C(=O)[C@@H]2C2c3ccccc3C=CN21` (stereo not given in full), the IC50 is 51.9 µM (inactive) and the fold change came to 2.

Take `COc1ccc(C2=CC(c3ccco3)n3ncnc3N2)cc1` (stereo not given): the half-maximal inhibitory concentration (IC50) was 1.31 µM and the fold change was 12.4.

On to `CCCN1C(=O)/C(=C\C=C2\N(CC)c3ccccc3C2(C)C)SC1=S`, for which the concentration for half-maximal inhibition (IC50) was 3.39 µM and the fold change is 20.

For `CN1CCN(C2=Nc3c(Cl)cc(Cl)c4cccc2c34)CC1`, the IC50 was 9.23 µM and the fold change worked out at 3.09.

On to `COC(=O)c1cc2n3ccccc3c(C)c(-c3ccccc3)c-2c1C(=O)OC`, for which the IC50 is 2.69 µM and the fold change amounted to 4.46.

Consider `CCc1nn2c(=O)cc(COc3ccc(/C=C4\C(=N)N5N=C(C)SC5=NC4=O)cc3)nc2s1`, for which the IC50 was 16.6 µM and the fold change worked out at 1.14.

With `N#C/C(=C\C1=C(N2CCOCC2)C(=C/c2cccc([N+](=O)[O-])c2)/CC1)C(=O)Nc1ccccc1F`, the IC50 is 3.64 µM and the fold change is 2.26.

As for `CCN(CC)c1ccc(N=Cc2c(O)n(-c3ccc(OC)cc3)c(=O)[nH]c2=O)cc1`, the IC50 is 6.01 µM and the fold change was determined as 17.1.

On to `CCCC(=O)NC(Oc1ccc(C(C)=O)cc1)C(Cl)(Cl)Cl` (stereo not given), for which the IC50 is > 54 µM (inactive) and the fold change was found to be 0.993.
